Patent US10479752B2, “Deuterated tetramethyl dioic acids, compositions comprising them and uses thereof” (SYNDROMEX LTD., priority 2011, dated 2019)

Key:
[1] = Chemical and isotopic stability as solutions in DMSO/phosphate buffered saline over 48 hours; details: for chemical purity (HPLC area percent) with respect to related substances: all samples through the study; for analyte recovered, yield: summary over the study; for disenrichment of the product (isotopic stability): throughout the time period of the study
Procedure: A 1 mg/mL stock solution (˜55 mL) of deuterated compound in DMSO was prepared. A measured volume of stock (7.5 mL) was dispensed in to each of seven vials. To each vial was added a measured volume of PBS (aq) (3.0 mL), and each vial was agitated to mix. The vials were then placed in a thermostatically-controlled oven set to 37° C. At each time-point (0 h, 2 h, 4 h, 24 h, 48 h) a vial was drawn from the oven. To the vial was added MTBE (9.0 mL), and the mixture was stirred vigorously for 5 min. The layers were separated, and the MTBE layer was agitated with DI water (3.75 mL) for 1 min. The layers were separated. The MTBE layer was dried with MgSO4 for >1 h, and then filtered through a PTFE syringe filter into a tared vial. The solution was concentrated in vacuo to a solid residue, and the mass of the residue was calculated and recorded. To the residue a measured volume of MeOH was added to make (theoretically) a 2.5 mg/mL solution. In this case, 3.00 mL MeOH was added to each vial which theoretically contained 7.5 mg of compound. The content of each solution was measured by quantitative HPLC analysis (by comparison to a standard of known concentration). The MeOH solutions were then recovered, concentrated in vacuo to a solid, and then analyzed by GCMS to determine isotopic enrichment as the methyl ester derivatives.

[2] = Comparative oral bioavailability / pharmacokinetic study, single intravenous and oral administration; assay type: in vivo; details: rat; for C0 / t1/2 / AUCinf / Cmax / tmax: Mean CV (%); for F (oral bioavailability): 50 mg/kg po vs 5 mg/kg iv, Mean (CV %); for tmax of the individual treated rats: oral administration 50 mg/kg, post-dose
Procedure: The pharmacokinetic properties and the oral bioavailability were investigated for the following comparative compounds:
The plasma concentrations of the test items were measured by LC/MS/MS method following single intravenous and oral administration at the doses of 5 mg/kg body weight and 50 mg/kg body weight, respectively. Following intravenous administration small inter-individual variability was observed. Following i.v administration, the highest plasma concentrations were measured at the first sampling time-point (5 minutes) followed by a biphasic continuous decrease. […] The peak concentrations, tmax and the apparent terminal elimination half-lives (t1/2) were the followings:
The vehicle for oral administration was prepared in advance. Preparation: 1 g of carboxymethylcellulose sodium salt was dissolved in 100 ml of Humaqua. The vehicle was prepared at least 2 days prior to formulation of the test items. The vehicle was stored in a refrigerator when not in use.
The required amount of test item was weighed on an analytical balance, transferred into a suitable vial. The test item was dissolved in the required volume of N,N-dimethylacetamide (40% of the final volume). Dissolution of the test item was facilitated by gentle mixing by vortex. The solution was diluted with the suitable volume of PEG400 (40% of the final volume) then Salsol A (20% of the final volume). The final concentration of the test item in the solution was 5 mg/ml. The formulations were prepared freshly on the day of administration.
The required amount of test item was weighed on an analytical balance, transferred into a test tube and mixed with the suitable volume of 1% CMC to achieve the final concentration of 25 mg/ml. The suspension was sonicated twice in bath sonicator for 30 min at 40 C (each round), and left overnight at room temperature. On the following day, the suspension was sonicated again (bath sonicator, 30 min, 40° C.) and further homogenized in a glass/glass homogenizer trying to reaching an homogenous suspension. In spite of the above procedure the quality (homogeneity) of the suspension was not perfect. The suspension was stored at room temperature till administration.
Species/Strain rat/Wistar (Crl:(WI)BR rats)
Number of animals: 24 males (at least 32 for cannulation*)
After the acclimatization period, rats were equipped with a jugular vein cannula under isoflurane anesthesia. The following day the animals were used for the study. In the morning the rats were checked for health status and blood sampling before assigning them into the experimental group.
The terminal elimination phase was defined on the basis of the last 3-5 measured concentration except rat A4. […] The central volume of distribution (Vc: […]) was approximately equal to the total blood volume. The volume of distribution estimated for the steady state situation (Vss: 97.3-143 ml/kg) remained also small compared to the total extracellular fluid volume (˜300 ml/kg). The clearance was also very small for all experimental compound analogues. The smallest clearance was obtained for Compound 7: 23.2 ml/h/kg.

Male db/db Mouse Model = test: Comparative in vivo efficacy study, 3 h-fasting blood glucose; details: db/db mice
Procedure: Male db/db Mouse Model. Age of animal at start of treatment: 10-11 weeks. Animals per treatment group: 6-7 mice per each group.
Vehicle control: (1% CMC in water).
Positive control: Rosiglitazone, 25 mg/kg.
Group I: Compound 7″, 12.5 mg/kg.
Group II: Compound 7″, 25 mg/kg. […]
Group IV: Compound 7, 25 mg/kg.
Duration of treatment: 15 days.
1. Dosing: Animals are 10-11 weeks of age and were allowed to acclimate 1-2 weeks. After acclimation, animals were entered to the study and were […] daily for a duration of 15 days.
2. Formulation: compounds were formulated with […]. Formulation also involve sonication and vortexing before use.
4. Fasting Glucose Levels: 3 h-Fasting glucose levels were measured on tail blood of all the animals on days 0, 6, 12, and 16 (not shown) of the study using glucose sticks (Proforma).

[3] = DMSO/PBS solution, 37° C., 24 h
[4] = DMSO/PBS solution, 37° C., 48 h
[5] = Original Sample (before the stability study)

SMILES	GC/MS IE (isotopic enrichment) ([1]; DMSO/PBS solution, 37° C., 0 h) [%]	HPLC Area Percentage ([1]; DMSO/PBS solution, 37° C., 0 h) [%]	HPLC Assay ([1]; DMSO/PBS solution, 37° C., 0 h) [%]	GC/MS IE (isotopic enrichment) ([1]; DMSO/PBS solution, 37° C., 2 h) [%]	HPLC Area Percentage ([1]; DMSO/PBS solution, 37° C., 2 h) [%]	HPLC Assay ([1]; DMSO/PBS solution, 37° C., 2 h) [%]	GC/MS IE (isotopic enrichment) ([1]; DMSO/PBS solution, 37° C., 4 h) [%]	HPLC Area Percentage ([1]; DMSO/PBS solution, 37° C., 4 h) [%]	HPLC Assay ([1]; DMSO/PBS solution, 37° C., 4 h) [%]	GC/MS IE (isotopic enrichment) [1, 3] [%]	HPLC Area Percentage [1, 3] [%]	HPLC Assay [1, 3] [%]	C0 ([2]; 5 mg/kg iv dose)	t1/2 ([2]; 5 mg/kg iv dose)	AUCinf ([2]; 5 mg/kg iv)	Cmax ([2]; 50 mg/kg po dose)	t1/2 ([2]; 50 mg/kg po dose)	tmax ([2]; 50 mg/kg po dose)	F (oral bioavailability) [2]	AUCinf ([2]; 50 mg/kg po)	other results
[2H]C([2H])([2H])C(CCCCCCCCCCC(C([2H])([2H])[2H])(C([2H])([2H])[2H])C([2H])([2H])C(=O)O)(C([2H])([2H])[2H])C([2H])([2H])C(=O)O [Compound 1, 3,3,14,14-[D16]Tetramethyl-1,16-hexadecanedoic acid]	98.3	98.1	66.5	98.2	97.2	64.5	98.2	97.8	70.1	98.3	97.6	89.3	67.0 (8.8%) μg/ml	2.81 (28.5%) h	137 (19.3%) h * μg/ml	114 (19.6%) μg/ml	4.29 (15.7%) h	4 (0%) h	91.0 (11.1) %	1246 (11.1%) h * μg/ml	GC/MS IE (isotopic enrichment) [1, 4]: 98.3%; HPLC Area Percentage [1, 4]: 97.5%; HPLC Assay [1, 4]: 86.3%; chemical purity (HPLC area percent) with respect to related substances ([1]; DMSO/PBS solution, 37° C.): around 97%; analyte recovered, yield ([1]; DMSO/PBS solution, 37° C.): over 90%; disenrichment of the product (isotopic stability) ([1]; DMSO/PBS solution, 37° C.): No disenrichment; GC/MS IE (isotopic enrichment) [1, 5]: 98.3%; HPLC Area Percentage [1, 5]: 100.0%; tmax of the individual treated rats [2]: 4 h
CC(C)(CCCCCCCCCCC(C)(C)CC(=O)O)CC(=O)O [Compound 1″, reference compound]													56.1 (6.2%) μg/ml	2.68 (6.0%) h	124 (23.6%) h * μg/ml	103 (24.2%) μg/ml	2.43 (57.6%) h	3.5 (79.5%) h	69.6 (29.4) %	863 (29.4%) h * μg/ml	
[2H]C([2H])([2H])C(CCCCCCCCCCCCC(C(=O)O)(C([2H])([2H])[2H])C([2H])([2H])[2H])(C(=O)O)C([2H])([2H])[2H] [Compound 7, 2,2,15,15-Tetramethyl(D12)-hexadecanedioic acid]	99.9	96.8	89.4	99.9	95.4	101.6	99.9	95.8	91.6	99.9	96.9	92.3	64.3 (16.9%) μg/ml	2.14 (2.6%) h	218 (14.9%) h * μg/ml	151 (29.0%) μg/ml	6.64 (50.3%) h	4 (0%) h	102 (36.8) %	2221 (36.8%) h * μg/ml	GC/MS IE (isotopic enrichment) [1, 4]: 99.9%; HPLC Area Percentage [1, 4]: 96.7%; HPLC Assay [1, 4]: 82.2%; chemical purity (HPLC area percent) with respect to related substances ([1]; DMSO/PBS solution, 37° C.): around 96%; analyte recovered, yield ([1]; DMSO/PBS solution, 37° C.): approximately 90%; disenrichment of the product (isotopic stability) ([1]; DMSO/PBS solution, 37° C.): No disenrichment; GC/MS IE (isotopic enrichment) [1, 5]: 99.9%; HPLC Area Percentage [1, 5]: 99.5%; efficacy on 3 h-fasting blood glucose, in words (Male db/db Mouse Model; Group III (Compound 7, 25 mg dose) compared with Groups I and II (Compound 7″)): exceeds that of both treatment Groups I and II; glucose level reached (normalized plasma levels) (Male db/db Mouse Model; Group IV (Compound 7, 25 mg)): less than 110 mg %; efficacy on 3 h-fasting blood glucose, in words (Male db/db Mouse Model; Group IV (Compound 7, 25 mg), days 0, 6, 12, compared with Rosiglitazone 25 mg/kg): greater efficacy as compared with Rosiglitazone; mean residence time ([2]; intravenous administration): 4.2 h; clearance ([2]; iv administration): 0.387 mL/min/kg; mean residence time ([2]; oral administration): 11.8 h; tmax of the individual treated rats [2]: 4 h
CC(C)(CCCCCCCCCCCCC(C)(C)C(=O)O)C(=O)O [Compound 7″, reference compound]													74.6 (6.9%) μg/ml	2.18 (19.1%) h	128 (13.4%) h * μg/ml	143 (41.3%) μg/ml	2.22 (9.9%) h	8 (50.0%) h	124 (28.3) %	1586 (28.3%) h * μg/ml	
